Common to all, as to format: cell-based, human
The subject of test [1] is HCT116 cells. The test is described as follows: Antiproliferative activity, Alamar Blue assay, HCT116 cells. As to conditions: Homo sapiens, HCT-116, HCT116 cells, Alamar Blue; read-out: HCT116 antiproliferative activity pIC50 (converted). Put shortly:
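HCT116 cells seeded, adhered 24 h, then exposed to compound for 4 days; Alamar Blue (resazurin) added for 4 h at 37 °C, fluorescence read at 540/590 nm. Viability as % of untreated control, triplicate wells; IC50 by probit analysis, reported as pIC50.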
(In general: The colour change of resazurin is a common sign of viable cells or microbes.)

In test [2] the test system is HCT116 cells. The test is described as follows: Mitotic arrest assay on HCT116 cells (phospho-histone H3 Ser10). As to conditions: Homo sapiens, HCT-116, HCT116 cells; lowest active dose; read-out: Mitotic arrest HCT116 LAD (converted). In short, it runs like this: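 Seeded overnight, then compound-treated 6 h at 37 °C (≤0.1% DMSO); fixed, stained with Alexa Fluor 488 anti-phospho-H3 (Ser10) plus Hoechst 33342, imaged on InCell Analyzer 1000. Blank-subtracted signal divided by SD (sigma), triplicate; value is lowest dose giving sigma >5 (LAD).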

The next test concerns PC-3 cells. Nature of the test: Antiproliferative activity, Alamar Blue assay, PC-3 cells. As to conditions: Homo sapiens, PC-3, PC3 cells, Alamar Blue; read-out: PC3 antiproliferative activity pIC50 (converted). In short, it runs like this:
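PC-3 cells seeded at 4.5×10^3 cells/ml, left to adhere 24 hr, then exposed to compound for 4 days. Resazurin (Alamar Blue) added for a further 24 hrs at 37° C; fluorescence read at 540/590 nm. Viability as % of untreated control, mean of 3 wells; IC50 by probit analysis, reported as pIC50.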

For `CCc1cc2ccc(C(C)(C#N)CN3CCN(c4ccc(C#N)cn4)CC3)cc2[nH]c1=O` (stereo not drawn) [Compound 377], the IC50 in the test with HCT116 cells [1] was 1000 nM; in the test on PC-3 cells it was 794 nM. The minimal effective concentration with HCT116 cells [2] was 0.3 µM.

Regarding `CCc1cc2ccc(C(C)(C#N)Cc3cc(Br)cc4c3OCC4)cc2[nH]c1=O` (stereo not drawn) [Compound 378], the IC50 with HCT116 cells [1] is 501 nM; in the test with PC-3 cells, 794 nM. The minimal effective concentration in the test on HCT116 cells [2] was 0.1 µM.

Turning to `CCc1cc2ccc(C(C)(C#N)Cc3cccc4[nH]ccc34)cc2[nH]c1=O` (stereo not drawn) [Compound 379], the IC50 in the test with HCT116 cells [1] and with PC-3 cells was 1260 nM in each case. For the same molecule, in the test with HCT116 cells [2], the minimal effective concentration is 0.3 µM.

For the molecule `Cc1cc2ccc([C@](C)(C#N)[C@H]3CCc4ccccc43)cc2[nH]c1=O` [Compound 387], the IC50 with HCT116 cells [1] was 2510 nM; with PC-3 cells, 5010 nM. In the test on HCT116 cells [2], the minimal effective concentration is 3 µM.

Take `Cc1cc2ccc(C(C)(C#N)C3CCc4ccccc43)cc2[nH]c1=O` (stereo not drawn) [Compound 392]: the IC50 in the test with HCT116 cells [1] was 398 nM; in the test on PC-3 cells, 794 nM. Moreover, the minimal effective concentration with HCT116 cells [2] is 0.3 µM.

For `Cc1cc2ccc(C(C)(C#N)C3CCCc4ccccc43)cc2[nH]c1=O` (stereo not drawn) [Compound 404], the IC50 was 1580 nM with HCT116 cells [1] and 3980 nM with PC-3 cells. In the test on HCT116 cells [2], the minimal effective concentration is 1 µM.

As to `Cc1cc2ccc(C(C)(C#N)Cc3cccc(/C=C/CCO)c3)cc2[nH]c1=O` (stereo not drawn) [Compound 409], the IC50 with HCT116 cells [1] is 398 nM; in the test on PC-3 cells, 501 nM. The minimal effective concentration in the test on HCT116 cells [2] is 0.3 µM.

Values taken from patent US8778966B2, “Quinolinone derivatives as PARP and tank inhibitors” (Janssen Pharmaceutica, NV, priority 2007, dated 2014).
